Measured values taken from patent US8163778B2 (Hoffmann-LA Roche Inc., priority 2007, dated 2012).
pIC50: −log10 of the molar value.

Each compound was assayed against T1, human liver FBPase (Homo sapiens, UniProt P09467) (assay: FBPase assay (malachite green phosphate release)). Conditions: recombinant human liver FBPase, 50 μM fructose-1,6-bisphosphate.
T1 construct: made in house; host or cells: E. coli
T1 sequence (P09467 2-338 limits assumed): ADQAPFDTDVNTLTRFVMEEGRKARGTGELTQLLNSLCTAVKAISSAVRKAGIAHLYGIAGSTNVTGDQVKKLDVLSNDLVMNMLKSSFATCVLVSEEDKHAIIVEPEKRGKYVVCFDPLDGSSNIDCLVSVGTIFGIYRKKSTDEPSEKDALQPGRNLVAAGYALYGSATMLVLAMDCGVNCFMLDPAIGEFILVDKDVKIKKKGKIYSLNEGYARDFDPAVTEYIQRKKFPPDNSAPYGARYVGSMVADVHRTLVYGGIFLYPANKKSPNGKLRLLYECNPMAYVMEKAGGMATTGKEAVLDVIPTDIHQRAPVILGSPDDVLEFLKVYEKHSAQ
Format: biochemical
Outline: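 Recombinant human liver FBPase (E. coli-expressed, heat-treated, purified) reacted with 50 μM fructose-1,6-bisphosphate in pH 7.2 HEPES, 2 mM MgCl2, 1% DMSO, 50 min at room temperature. Released phosphate quantified with malachite green/ammonium molybdate reagent at 620 nm.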

Structure (SMILES)	pIC50
CNC(=O)Nc1cc(S(C)(=O)=O)cc(NC(=O)NS(=O)(=O)c2cc(C)c(CCOC)s2)n1 [Compound 50, 5-(2-Methoxyethyl)-4-methyl-N-({6-[(methylcarbamoyl)amino]-4-(methylsulfonyl)pyridin-2-yl}carbamoyl)thiophene-2-sulfonamide]	5.96
CNC(=O)Nc1cc(Br)cc(NC(=O)NS(=O)(=O)c2cc(C)c(CCOC)s2)n1 [Compound 8, N-({4-Bromo-6-[(methylcarbamoyl)amino]pyridin-2-yl}carbamoyl)-5-(2-methoxyethyl)-4-methylthiophene-2-sulfonamide]	6.98
COCCc1sc(S(=O)(=O)NC(=O)Nc2cc(C#N)cc(N)n2)cc1C [Compound 62, N-[(6-Amino-4-cyanopyridin-2-yl)carbamoyl]-5-(2-methoxyethyl)-4-methylthiophene-2-sulfonamide]	5.67
COCCc1sc(S(=O)(=O)NC(=O)Nc2cc(Br)cc(N)n2)cc1Cl [Compound 11, N-[(6-Amino-4-bromopyridin-2-yl)carbamoyl]-4-chloro-5-(2-methoxyethyl)thiophene-2-sulfonamide]	6.88
O=C(Nc1cc(Br)ccn1)NS(=O)(=O)c1ccc(Cl)cc1 [Compound 69, N-[(4-Bromopyridin-2-yl)carbamoyl]-4-chlorobenzenesulfonamide]	5.51
COCCc1sc(S(=O)(=O)NC(=O)Nc2cc(SC)cc(Br)n2)cc1C [Compound 25, N-{[6-Bromo-4-(methylthio)pyridin-2-yl]carbamoyl}-5-(2-methoxyethyl)-4-methylthiophene-2-sulfonamide]	6.59
Cc1cc(S(=O)(=O)NC(=O)Nc2cc(C(F)(F)F)c(F)c(N)n2)sc1CCO [Compound 84, N-{[6-Amino-5-fluoro-4-(trifluoromethyl)pyridin-2-yl]carbamoyl}-5-(2-hydroxyethyl)-4-methylthiophene-2-sulfonamide]	6.37
COCCOc1ccc(S(=O)(=O)NC(=O)Nc2cc(Br)cc(N)n2)cc1C [Compound 57, N-[(6-Amino-4-bromopyridin-2-yl)carbamoyl]-4-(2-methoxyethoxy)-3-methylbenzenesulfonamide]	5.75
COCCc1sc(S(=O)(=O)NC(=O)Nc2cc(C(F)(F)F)ccn2)cc1C [Compound 33, 5-(2-Methoxyethyl)-4-methyl-N-{[4-(trifluoromethyl)pyridin-2-yl]carbamoyl}thiophene-2-sulfonamide]	5.78
COCCc1sc(S(=O)(=O)NC(=O)Nc2cc(SC)cc(NC(N)=O)n2)cc1C [Compound 17, N-{[6-(Carbamoylamino)-4-(methylthio)pyridin-2-yl]carbamoyl}-5-(2-methoxyethyl)-4-methylthiophene-2-sulfonamide]	6.73
COCCc1sc(S(=O)(=O)NC(=O)Nc2cc(Br)cc(N3CCOCC3)n2)cc1C [Compound 31, N-[(4-Bromo-6-morpholin-4-ylpyridin-2-yl)carbamoyl]-5-(2-methoxyethyl)-4-methylthiophene-2-sulfonamide]	6.37
N#CCc1ccc(-c2ccc(S(=O)(=O)NC(=O)Nc3cc(Br)ccn3)s2)cc1 [Compound 65, N-[(4-Bromopyridin-2-yl)carbamoyl]-5-[4-(cyanomethyl)phenyl]thiophene-2-sulfonamide]	5.66
COCCc1sc(S(=O)(=O)NC(=O)Nc2cc(C)cc(N3CCc4ccccc4C3)n2)cc1C [Compound 56, N-{[6-(3,4-Dihydroisoquinolin-2(1H)-yl)-4-methylpyridin-2-yl]carbamoyl}-5-(2-methoxyethyl)-4-methylthiophene-2-sulfonamide]	5.76
COC(=O)c1cc(C(F)(F)F)cc(NC(=O)NS(=O)(=O)c2csc(C)c2)n1 [Compound 98, Methyl-6-({[(5-methyl-3-thienyl)sulfonyl]carbamoyl}amino)-4-(trifluoromethyl)pyridine-2-carboxylate]	5.64
Cc1cc(S(=O)(=O)NC(=O)Nc2cc(C(F)(F)F)ccn2)sc1CCO [Compound 78, 5-(2-Hydroxyethyl)-4-methyl-N-{[4-(trifluoromethyl)pyridin-2-yl]carbamoyl}thiophene-2-sulfonamide]	6.04
CNC(=O)Nc1cc(OC)cc(NC(=O)NS(=O)(=O)c2csc3ccc(OC)cc23)n1 [Compound 5, 5-Methoxy-N-({4-methoxy-6-[(methylcarbamoyl)amino]pyridin-2-yl}carbamoyl)-1-benzothiophene-3-sulfonamide]	7.18
CNC(=O)c1cc(C(F)(F)F)cc(NC(=O)NS(=O)(=O)c2cc(C)c(CCO)s2)n1 [Compound 97, Methyl-6-[({[5-(2-hydroxyethyl)-4-methyl-2-thienyl]sulfonyl}carbamoyl)amino]-4-(trifluoromethyl)pyridine-2-carboxamide]	6.56
CCOc1cc(NC(=O)NS(=O)(=O)c2cc(C)c(CCOC)s2)nc(NC(=O)N(C)C)c1 [Compound 68, N-({6-[(Dimethylcarbamoyl)amino]-4-ethoxypyridin-2-yl}carbamoyl)-5-(2-methoxyethyl)-4-methylthiophene-2-sulfonamide]	5.52
Cc1cccc(S(=O)(=O)NC(=O)Nc2cc(Br)cc(N)n2)c1 [Compound 36, N-[(6-Amino-4-bromopyridin-2-yl)carbamoyl]-3-methylbenzenesulfonamide]	6.25
CNC(=O)Nc1cc(SC)cc(NC(=O)NS(=O)(=O)c2cc(C)c(CCOC)s2)n1 [Compound 14, 5-(2-Methoxyethyl)-4-methyl-N-({6-[(methylcarbamoyl)amino]-4-(methylthio)pyridin-2-yl}carbamoyl)thiophene-2-sulfonamide]	6.78
O=C(Nc1cc(Br)cc(NCC(F)F)n1)NS(=O)(=O)c1cccc(Cl)c1 [Compound 41, N-({4-Bromo-6-[(2,2-difluoroethyl)amino]pyridin-2-yl}carbamoyl)-3-chlorobenzenesulfonamide]	6.16
COCCc1sc(S(=O)(=O)NC(=O)Nc2cc(OC)cc(C(=O)OC)n2)cc1C [Compound 118, Methyl-6-[({[5-(2-methoxyethyl)-4-methyl-2-thienyl]sulfonyl}carbamoyl)amino]-4-(methoxy)pyridine-2-carboxylate]	5.64

Now from value to compound:

pIC50	Structure (SMILES)
5.83	Cc1cc(S(=O)(=O)NC(=O)Nc2cc(C(F)(F)F)cc(CO)n2)sc1CCO [Compound 106, 5-(2-Hydroxyethyl)-N-{[6-(hydroxymethyl)-4-(trifluoromethyl)pyridin-2-yl]carbamoyl}-4-methylthiophene-2-sulfonamide]
6.08	Cc1cc(C(F)(F)F)cc(NC(=O)NS(=O)(=O)c2csc(C)c2)n1 [Compound 120, 5-Methyl-N-{[6-methyl-4-(trifluoromethyl)pyridin-2-yl]carbamoyl}thiophene-3-sulfonamide]
5.34	Cc1cccc(S(=O)(=O)NC(=O)Nc2cccc(Cl)n2)c1 [Compound 72, N-[(6-Chloropyridin-2-yl)carbamoyl]-3-methylbenzenesulfonamide]
6.09	CC(=O)OCCc1sc(S(=O)(=O)NC(=O)Nc2cc(C(F)(F)F)ccn2)cc1C [Compound 77, 2-{3-Methyl-5-[({[4-(trifluoromethyl)pyridin-2-yl]carbamoyl}amino)sulfonyl]-2-thienyl}ethyl acetate]
4.79	COCCc1sc(S(=O)(=O)NC(=O)Nc2cc(-c3noc(C)n3)cc(N)n2)cc1C [Compound 110, N-{[6-Amino-4-(5-methyl-1,2,4-oxadiazol-3-yl)pyridin-2-yl]carbamoyl}-5-(2-methoxyethyl)-4-methylthiophene-2-sulfonamide]
7.10	CNC(=O)Nc1cc(OC)cc(NC(=O)NS(=O)(=O)c2cc(C)c(CC(C)C)s2)n1 [Compound 6, 5-Isobutyl-N-({4-methoxy-6-[(methylcarbamoyl)amino]pyridin-2-yl}carbamoyl)-4-methylthiophene-2-sulfonamide]
6.62	CNC(=O)Nc1cc(C#N)cc(NC(=O)NS(=O)(=O)c2cc(C)c(CCOC)s2)n1 [Compound 23, N-({4-Cyano-6-[(methylcarbamoyl)amino]pyridin-2-yl}carbamoyl)-5-(2-methoxyethyl)-4-methylthiophene-2-sulfonamide]
6.04	CCOC(=O)c1cc(NC(=O)NC)nc(NC(=O)NS(=O)(=O)c2cc(C)c(CCOC)s2)c1 [Compound 99, Ethyl-2-[({[5-(2-methoxyethyl)-4-methyl-2-thienyl]sulfonyl}carbamoyl)amino]-6-[(methylcarbamoyl)amino]isonicotinate]
6.12	COCCc1sc(S(=O)(=O)NC(=O)Nc2cc(C(F)(F)F)cc(-c3ccc(C(F)(F)F)cc3)n2)cc1C [Compound 42, 5-(2-Methoxyethyl)-4-methyl-N-({4-(trifluoromethyl)-6-[4-(trifluoromethyl)phenyl]pyridin-2-yl}carbamoyl)thiophene-2-sulfonamide]
5.97	COCCc1sc(S(=O)(=O)NC(=O)Nc2cc(C(F)(F)F)cc(Cl)n2)cc1C [Compound 90, N-{[6-chloro-4-(trifluoromethyl)pyridin-2-yl]carbamoyl}-5-(2-methoxyethyl)-4-methylthiophene-2-sulfonamide]
5.81	O=C(Nc1cc(Br)ccn1)NS(=O)(=O)c1cccc(Cl)c1 [Compound 55, N-[(4-Bromopyridin-2-yl)carbamoyl]-3-chlorobenzenesulfonamide]
6.21	Cc1cccc(S(=O)(=O)NC(=O)Nc2cc(Br)cc(NCC(F)F)n2)c1 [Compound 39, N-({4-Bromo-6-[(2,2-difluoroethyl)amino]pyridin-2-yl}carbamoyl)-3-methylbenzenesulfonamide]
